In ChEMBL document CHEMBL4665820, “Discovery of VU6027459: A First-in-Class Selective and CNS Penetrant mGlu Positive Allosteric Modulator Tool Compound” (ACS Med Chem Lett, 2020):

How the values were obtained:
[1] = target: Adenosine receptor A1 (Homo sapiens) (UniProt P30542); assay: Displacement of [3H]-DPCPX from human recombinant adenosine A1 receptor at 10 uM after 60 mins by scintillation counting analysis relative to control
[2] = target: Metabotropic glutamate receptor 7 (Rattus norvegicus) (UniProt P35400); assay: Positive allosteric modulation of rat mGlu7 expressed in HEK293 cells co- expressing GIRK assessed as potentiation of L-AP4-induced thallium flux incubated for 140 sec by FluoZin2-AM dye based fluorescence analysis relative to maximal induction of L-AP4; type: cell-based; conditions: filed as positive allosteric modulator
[3] = target: Alpha-1A adrenergic receptor (Homo sapiens) (UniProt P35348); assay: Displacement of [3H]-Prazosin from human recombinant adrenergic alpha 1A receptor at 10 uM incubated for 60 mins by scintillation counting analysis relative to control
[4] = target: Alpha-2A adrenergic receptor (Homo sapiens) (UniProt P08913); assay: Displacement of [3H]-RX821002 from human recombinant adrenergic alpha 2A receptor at 10 uM incubated for 60 mins by scintillation counting analysis relative to control
[5] = target: Beta-1 adrenergic receptor (Homo sapiens) (UniProt P08588); assay: Displacement of [3H](-)CGP 12177 from human beta1 adrenoceptor at 10 uM after 60 mins by scintillation counting analysis relative to control
[6] = target: Beta-2 adrenergic receptor (Homo sapiens) (UniProt P07550); assay: Displacement of [3H]-(-)CGP 12177 from human recombinant adrenergic beta 2 receptor at 10 uM incubated for 120 mins by scintillation counting analysis relative to control
[7] = target: B1 bradykinin receptor (Homo sapiens) (UniProt P46663); assay: Displacement of [3H]desArg10-KD from human recombinant Bradykinin B1 receptor at 10 uM incubated for 120 mins by scintillation counting analysis relative to control
B1 bradykinin receptor (Homo sapiens), sequence (P46663 whole entry): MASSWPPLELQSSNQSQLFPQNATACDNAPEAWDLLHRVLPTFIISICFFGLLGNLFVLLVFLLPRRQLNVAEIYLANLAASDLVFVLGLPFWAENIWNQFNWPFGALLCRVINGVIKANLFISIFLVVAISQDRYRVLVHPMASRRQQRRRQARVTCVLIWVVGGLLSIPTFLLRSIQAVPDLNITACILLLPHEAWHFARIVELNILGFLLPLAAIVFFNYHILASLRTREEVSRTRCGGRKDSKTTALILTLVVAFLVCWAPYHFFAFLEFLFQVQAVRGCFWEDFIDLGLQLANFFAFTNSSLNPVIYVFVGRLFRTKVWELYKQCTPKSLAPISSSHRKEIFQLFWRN

Rattus norvegicus [8] = species on record: Rattus norvegicus; assay: Displacement of [3H]-Nitrendipine from L-type calcium channel dihydropyridine binding site in rat brain at 10 uM incubated for 90 mins by scintillation counting analysis relative to control; type: tissue-based
[9] = target: Epidermal growth factor receptor (Homo sapiens) (UniProt P00533); assay: Displacement of [125I]-EGF from human EGF receptor at 10 uM incubated for 60 mins by scintillation counting analysis relative to control
Epidermal growth factor receptor (Homo sapiens), sequence (P00533 whole entry): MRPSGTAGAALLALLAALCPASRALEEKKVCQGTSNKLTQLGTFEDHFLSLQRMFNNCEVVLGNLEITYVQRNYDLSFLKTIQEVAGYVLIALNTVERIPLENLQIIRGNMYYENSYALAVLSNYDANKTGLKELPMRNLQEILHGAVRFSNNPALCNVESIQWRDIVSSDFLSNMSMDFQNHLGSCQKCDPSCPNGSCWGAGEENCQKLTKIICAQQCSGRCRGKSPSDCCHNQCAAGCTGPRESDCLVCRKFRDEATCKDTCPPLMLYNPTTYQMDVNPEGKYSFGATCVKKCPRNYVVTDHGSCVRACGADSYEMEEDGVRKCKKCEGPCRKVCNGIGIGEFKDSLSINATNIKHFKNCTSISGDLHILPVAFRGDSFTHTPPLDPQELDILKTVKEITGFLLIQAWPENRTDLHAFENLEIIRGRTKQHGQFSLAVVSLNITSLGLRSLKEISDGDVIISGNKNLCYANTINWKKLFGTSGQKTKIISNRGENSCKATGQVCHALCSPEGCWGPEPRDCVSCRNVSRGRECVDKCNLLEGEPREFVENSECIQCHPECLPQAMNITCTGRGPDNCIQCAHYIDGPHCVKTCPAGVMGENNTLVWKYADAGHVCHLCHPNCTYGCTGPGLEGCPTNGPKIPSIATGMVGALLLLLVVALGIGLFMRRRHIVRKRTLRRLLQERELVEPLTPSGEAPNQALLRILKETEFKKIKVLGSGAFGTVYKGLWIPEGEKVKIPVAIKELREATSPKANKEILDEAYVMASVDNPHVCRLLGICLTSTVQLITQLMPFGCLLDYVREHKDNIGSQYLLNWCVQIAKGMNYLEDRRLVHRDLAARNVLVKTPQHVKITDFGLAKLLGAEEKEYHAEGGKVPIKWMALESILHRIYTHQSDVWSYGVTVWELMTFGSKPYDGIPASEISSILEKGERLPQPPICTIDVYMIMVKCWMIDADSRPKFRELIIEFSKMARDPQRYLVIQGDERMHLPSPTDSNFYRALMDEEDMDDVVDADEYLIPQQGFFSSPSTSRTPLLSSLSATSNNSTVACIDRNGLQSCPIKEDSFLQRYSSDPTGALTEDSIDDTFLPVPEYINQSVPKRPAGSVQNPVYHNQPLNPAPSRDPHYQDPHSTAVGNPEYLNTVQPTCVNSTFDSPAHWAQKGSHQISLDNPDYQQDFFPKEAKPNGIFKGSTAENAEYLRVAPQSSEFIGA

[10] = target: Estrogen receptor (Homo sapiens) (UniProt P03372); assay: Displacement of [3H]-estradiol from human recombinant Estrogen ERalpha receptor at 10 uM incubated for 120 mins by scintillation counting analysis relative to control
Rattus norvegicus [11] = species on record: Rattus norvegicus; assay: Displacement of [3H]-Muscimol from GABAA channel muscimol binding site in rat brain at 10 uM incubated for 10 mins by scintillation counting analysis relative to control; type: tissue-based
[12] = target: Gamma-aminobutyric acid type B receptor subunit 1 (Homo sapiens) (UniProt Q9UBS5); assay: Displacement of [3H]-CGP54626 from human recombinant GABAB1A channel at 10 uM incubated for 180 mins by scintillation counting analysis relative to control
Gamma-aminobutyric acid type B receptor subunit 1 (Homo sapiens), sequence (Q9UBS5 whole entry): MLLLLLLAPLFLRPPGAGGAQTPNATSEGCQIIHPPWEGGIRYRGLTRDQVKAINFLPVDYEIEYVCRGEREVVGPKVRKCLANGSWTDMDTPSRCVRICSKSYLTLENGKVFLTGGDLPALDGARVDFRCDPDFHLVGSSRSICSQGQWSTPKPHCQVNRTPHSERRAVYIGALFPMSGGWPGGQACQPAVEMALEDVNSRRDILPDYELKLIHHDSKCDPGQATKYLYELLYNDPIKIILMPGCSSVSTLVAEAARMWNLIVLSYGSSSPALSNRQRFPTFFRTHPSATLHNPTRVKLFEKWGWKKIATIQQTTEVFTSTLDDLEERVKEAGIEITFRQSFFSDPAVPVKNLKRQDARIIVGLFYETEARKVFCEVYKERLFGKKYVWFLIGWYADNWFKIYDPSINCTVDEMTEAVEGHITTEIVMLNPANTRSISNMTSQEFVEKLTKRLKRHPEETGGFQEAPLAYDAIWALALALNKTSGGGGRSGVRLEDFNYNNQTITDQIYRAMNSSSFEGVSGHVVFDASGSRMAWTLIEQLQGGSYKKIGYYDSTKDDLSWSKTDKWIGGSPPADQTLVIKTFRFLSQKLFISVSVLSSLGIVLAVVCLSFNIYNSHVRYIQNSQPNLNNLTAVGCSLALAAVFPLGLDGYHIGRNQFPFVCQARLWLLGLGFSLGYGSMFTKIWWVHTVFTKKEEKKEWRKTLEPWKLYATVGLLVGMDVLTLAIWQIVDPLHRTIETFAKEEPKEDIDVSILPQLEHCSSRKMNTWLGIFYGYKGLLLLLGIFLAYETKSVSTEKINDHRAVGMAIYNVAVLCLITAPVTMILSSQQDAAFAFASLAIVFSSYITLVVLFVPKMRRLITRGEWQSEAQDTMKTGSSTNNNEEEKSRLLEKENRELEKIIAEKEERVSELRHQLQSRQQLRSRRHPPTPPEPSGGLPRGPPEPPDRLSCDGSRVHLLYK

Rattus norvegicus [13] = species on record: Rattus norvegicus; assay: Displacement of [3H]-MDL105519 from NMDA glutamate receptor glycine binding site in rat at 10 uM incubated for 30 mins by scintillation counting analysis relative to control
Rattus norvegicus [14] = species on record: Rattus norvegicus; assay: Displacement of [3H]-TCP from NMDA glutamate receptor phencyclidine binding site in rat at 10 uM incubated for 45 mins by scintillation counting analysis relative to control
[15] = target: Histamine H1 receptor (Homo sapiens) (UniProt P35367); assay: Displacement of [3H]pyrilamine from human recombinant histamine H1 receptor at 10 uM after 60 mins by scintillation counting analysis relative to control
[16] = target: Histamine H3 receptor (Homo sapiens) (UniProt Q9Y5N1); assay: Displacement of [3H]-N-alpha-Methylhistamine from human recombinant Histamine H3 receptor at 10 uM incubated for 60 mins by scintillation counting analysis relative to control
Histamine H3 receptor (Homo sapiens), sequence (Q9Y5N1 whole entry): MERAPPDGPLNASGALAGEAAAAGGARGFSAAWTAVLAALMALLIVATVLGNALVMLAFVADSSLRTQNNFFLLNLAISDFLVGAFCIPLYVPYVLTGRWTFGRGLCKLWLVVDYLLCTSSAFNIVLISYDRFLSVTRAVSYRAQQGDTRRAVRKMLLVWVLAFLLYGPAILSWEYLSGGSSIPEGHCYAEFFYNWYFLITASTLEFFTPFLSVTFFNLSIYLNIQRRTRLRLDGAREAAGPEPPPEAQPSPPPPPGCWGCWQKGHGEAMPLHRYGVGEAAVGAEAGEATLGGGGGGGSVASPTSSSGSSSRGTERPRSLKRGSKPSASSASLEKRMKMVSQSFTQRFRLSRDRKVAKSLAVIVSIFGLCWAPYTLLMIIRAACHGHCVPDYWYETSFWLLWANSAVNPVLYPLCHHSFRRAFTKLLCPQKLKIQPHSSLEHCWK

[17] = target: Interleukin-1 receptor type 1 (Homo sapiens) (UniProt P14778); assay: Displacement of [125I]-Interleukin 1beta from human interleukin IL-1 R1 receptor at 10 uM incubated for 120 mins by scintillation counting analysis relative to control
[18] = target: Melatonin receptor type 1A (Homo sapiens) (UniProt P48039); assay: Displacement of [125I][…] from human recombinant MT1 receptor at 10 uM after 240 mins by scintillation counting analysis relative to control
[19] = target: Neuronal acetylcholine receptor; alpha3/beta4 (Homo sapiens) (UniProt P30926+P32297); assay: Displacement of [125I] epibatidine from human nicotinic acetylcholine receptor alpha3/beta4 at 10 uM incubated for 60 mins by scintillation counting analysis relative to control; type: protein-complex assay
[20] = target: Delta-type opioid receptor (Homo sapiens) (UniProt P41143); assay: Displacement of [3H]DADLE from human recombinant Delta opioid receptor at 10 uM after 60 mins by scintillation counting analysis relative to control
Delta-type opioid receptor (Homo sapiens), sequence (P41143 whole entry): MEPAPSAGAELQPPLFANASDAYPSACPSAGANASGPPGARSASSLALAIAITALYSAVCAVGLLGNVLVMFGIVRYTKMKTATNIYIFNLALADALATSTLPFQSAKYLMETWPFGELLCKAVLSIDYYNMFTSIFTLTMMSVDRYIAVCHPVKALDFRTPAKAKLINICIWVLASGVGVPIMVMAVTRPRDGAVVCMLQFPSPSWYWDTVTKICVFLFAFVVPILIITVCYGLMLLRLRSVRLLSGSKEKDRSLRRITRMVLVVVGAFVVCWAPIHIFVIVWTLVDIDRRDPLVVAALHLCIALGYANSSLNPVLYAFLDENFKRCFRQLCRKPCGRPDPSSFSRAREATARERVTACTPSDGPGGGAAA

[21] = target: Mu-type opioid receptor (Homo sapiens) (UniProt P35372); assay: Displacement of [3H]DAMGO from human recombinant mu receptor at 10 uM after 120 mins by scintillation counting analysis relative to control
Mu-type opioid receptor (Homo sapiens), sequence (P35372 whole entry): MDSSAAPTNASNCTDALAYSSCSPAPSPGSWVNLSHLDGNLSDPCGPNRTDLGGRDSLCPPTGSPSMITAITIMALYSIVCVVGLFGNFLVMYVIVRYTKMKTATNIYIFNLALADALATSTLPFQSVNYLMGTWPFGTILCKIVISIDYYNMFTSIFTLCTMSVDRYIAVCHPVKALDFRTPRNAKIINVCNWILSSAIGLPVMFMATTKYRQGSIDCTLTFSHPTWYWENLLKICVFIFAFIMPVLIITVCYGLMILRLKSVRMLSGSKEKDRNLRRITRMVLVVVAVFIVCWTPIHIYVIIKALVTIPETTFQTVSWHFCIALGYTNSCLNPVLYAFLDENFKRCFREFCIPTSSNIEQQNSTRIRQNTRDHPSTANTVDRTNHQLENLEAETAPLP

[22] = target: Platelet-activating factor receptor (Homo sapiens) (UniProt P25105); assay: Displacement of [3H]-C18-PAF from human PAF receptor at 10 uM incubated for 180 mins by scintillation counting analysis relative to control
Platelet-activating factor receptor (Homo sapiens), sequence (P25105 whole entry): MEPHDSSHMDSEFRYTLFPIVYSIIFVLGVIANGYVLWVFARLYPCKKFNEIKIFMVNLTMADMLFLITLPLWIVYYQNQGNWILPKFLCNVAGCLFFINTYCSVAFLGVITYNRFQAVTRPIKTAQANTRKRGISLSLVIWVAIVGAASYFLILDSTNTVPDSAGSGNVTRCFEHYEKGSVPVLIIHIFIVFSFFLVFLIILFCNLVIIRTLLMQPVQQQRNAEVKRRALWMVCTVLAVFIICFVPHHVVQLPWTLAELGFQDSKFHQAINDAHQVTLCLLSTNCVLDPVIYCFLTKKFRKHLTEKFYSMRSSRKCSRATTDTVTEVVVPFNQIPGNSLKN

[23] = target: P2X receptor (Rattus norvegicus) (UniProt P51579+P49653+P51578+Q64663+P47824+P51577+P49654); assay: Displacement of [3H]alpha, beta-methylene ATP from P2X receptor in rat urinary bladder at 10 uM incubated for 120 mins by scintillation counting analysis relative to control
Rattus norvegicus [24] = species on record: Rattus norvegicus; assay: Displacement of [3H]-Rolipram from phosphodiesterases PDE4 rolipram binding site in rat at 10 uM incubated for 60 mins by radioligand binding assay relative to control
[25] = target: 5-hydroxytryptamine receptor 1A (Homo sapiens) (UniProt P08908); assay: Displacement of [3H]8-OH-DPAT from recombinant human 5-HT1A receptor at 10 uM after 60 mins by scintillation counting analysis relative to control
[26] = target: 5-hydroxytryptamine receptor 2B (Homo sapiens) (UniProt P41595); assay: Displacement of [125I]+/-DOI from human recombinant 5-HT2B receptor at 10 uM after 60 mins by scintillation counting analysis relative to control
5-hydroxytryptamine receptor 2B (Homo sapiens), sequence (P41595 whole entry): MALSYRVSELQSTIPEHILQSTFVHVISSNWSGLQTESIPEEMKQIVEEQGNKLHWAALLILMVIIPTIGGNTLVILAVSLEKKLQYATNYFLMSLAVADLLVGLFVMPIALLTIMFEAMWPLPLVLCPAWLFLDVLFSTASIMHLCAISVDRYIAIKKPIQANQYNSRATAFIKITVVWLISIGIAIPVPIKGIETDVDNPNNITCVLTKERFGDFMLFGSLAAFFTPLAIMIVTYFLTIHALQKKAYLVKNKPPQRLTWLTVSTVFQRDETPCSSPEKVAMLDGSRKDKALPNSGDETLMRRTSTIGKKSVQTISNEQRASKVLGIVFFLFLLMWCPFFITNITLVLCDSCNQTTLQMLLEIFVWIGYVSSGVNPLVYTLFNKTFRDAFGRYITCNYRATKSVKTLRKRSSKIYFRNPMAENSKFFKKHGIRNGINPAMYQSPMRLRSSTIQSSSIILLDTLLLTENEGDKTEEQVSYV

[27] = target: 5-hydroxytryptamine receptor 3A (Homo sapiens) (UniProt P46098); assay: Displacement of [3H]BRL 43694 from human recombinant 5-HT3 receptor at 10 uM after 120 mins by scintillation counting analysis relative to control
Rattus norvegicus [28] = species on record: Rattus norvegicus; assay: Displacement of [3H]-Batrachotoxinin from rat sodium channel site 2 at 10 uM incubated for 60 mins by scintillation counting analysis relative to control
Rattus norvegicus [29] = species on record: Rattus norvegicus; assay: Displacement of [125I]-Triiodothyronine from thyroid hormone receptors in rat at 10 uM incubated for 180 mins by scintillation counting analysis relative to control
Rattus norvegicus [30] = species on record: Rattus norvegicus; assay: Displacement of [3H]-GABA in GABA transporter in rat brain membrane at 10 uM incubated for 30 mins by scintillation counting analysis elative to control; type: cell membranes
[31] = Fraction unbound in mouse plasma at 5 uM incubated for 4 hrs by equilibrium dialysis based LC-MS/MS analysis; type: ADME, cell-free

Adenosine receptor A1 (Homo sapiens), sequence (P30542 whole entry): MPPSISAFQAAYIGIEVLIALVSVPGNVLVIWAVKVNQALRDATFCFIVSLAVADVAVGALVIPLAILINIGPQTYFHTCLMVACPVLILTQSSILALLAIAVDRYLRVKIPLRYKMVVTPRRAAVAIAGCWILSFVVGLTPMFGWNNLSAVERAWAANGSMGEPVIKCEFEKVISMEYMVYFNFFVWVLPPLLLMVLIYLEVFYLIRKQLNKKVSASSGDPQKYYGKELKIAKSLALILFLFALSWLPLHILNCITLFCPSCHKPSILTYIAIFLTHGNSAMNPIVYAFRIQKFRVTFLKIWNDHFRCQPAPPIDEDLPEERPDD

COc1cccc2c(N3CCN(c4ccccc4F)CC3)c(C#N)cnc12
0.051: fraction unbound at 4 h, 5 µM [31]
51.3%: Activity [2]
< 50%: inhibition [1] | inhibition [3] | inhibition [4] | inhibition [5] | inhibition [6] | inhibition [7] | inhibition (Rattus norvegicus [8]) | inhibition [9] | inhibition [10] | inhibition (Rattus norvegicus [11]) | inhibition [12] | inhibition (Rattus norvegicus [13]) | inhibition (Rattus norvegicus [14]) | inhibition [15] | inhibition [16] | inhibition [17] | inhibition [18] | inhibition [19] | inhibition [20] | inhibition [21] | inhibition [22] | inhibition [23] | inhibition (Rattus norvegicus [24]) | inhibition [25] | inhibition [26] | inhibition [27] | inhibition (Rattus norvegicus [28]) | inhibition (Rattus norvegicus [29]) | inhibition (Rattus norvegicus [30])

COc1cc(F)cc2c(N3CCN(c4ccccc4F)CC3)c(C#N)cnc12
< 50%: inhibition ([1]; tested as the 2H-labelled form) | inhibition ([3]; tested as the 2H-labelled form) | inhibition ([4]; tested as the 2H-labelled form) | inhibition ([5]; tested as the 2H-labelled form) | inhibition ([6]; tested as the 2H-labelled form) | inhibition ([7]; tested as the 2H-labelled form) | inhibition (Rattus norvegicus [8]; tested as the 2H-labelled form) | inhibition ([9]; tested as the 2H-labelled form) | inhibition ([10]; tested as the 2H-labelled form) | inhibition (Rattus norvegicus [11]; tested as the 2H-labelled form) | inhibition ([12]; tested as the 2H-labelled form) | inhibition (Rattus norvegicus [13]; tested as the 2H-labelled form) | inhibition (Rattus norvegicus [14]; tested as the 2H-labelled form) | inhibition ([15]; tested as the 2H-labelled form) | inhibition ([16]; tested as the 2H-labelled form) | inhibition ([17]; tested as the 2H-labelled form) | inhibition ([18]; tested as the 2H-labelled form) | inhibition ([19]; tested as the 2H-labelled form) | inhibition ([20]; tested as the 2H-labelled form) | inhibition ([21]; tested as the 2H-labelled form) | inhibition ([22]; tested as the 2H-labelled form) | inhibition ([23]; tested as the 2H-labelled form) | inhibition (Rattus norvegicus [24]; tested as the 2H-labelled form) | inhibition ([25]; tested as the 2H-labelled form) | inhibition ([26]; tested as the 2H-labelled form) | inhibition ([27]; tested as the 2H-labelled form) | inhibition (Rattus norvegicus [28]; tested as the 2H-labelled form) | inhibition (Rattus norvegicus [29]; tested as the 2H-labelled form) | inhibition (Rattus norvegicus [30]; tested as the 2H-labelled form)
62.8%: Activity ([2]; tested as the 2H-labelled form)
0.012: fraction unbound at 4 h, 5 µM [31]
